According to article PMC4643674 (Journal of medicinal chemistry, 2013):

Legend:
[1] = human liver microsomal stability; assay type: in vitro ADME
plasma stability, rat = assay type: in vitro ADME; settings: two-hour time-course, Figure S2
[2] = tested on: GluN2D receptor mutants (Q801Y, L705F and A752V); assay: inhibition of mutant GluN2D receptors; assay type: cell-based; settings: mutants vs wild type GluN2D; Figure S1
[3] = tested on: 42 different ion channels, G-protein coupled receptors, and transporters; assay: NIMH PDSP primary binding assay; settings: 5 µM compound
plasma stability, human = assay type: in vitro ADME; settings: two-hour time-course, Figure S2
plasma stability, mouse = assay type: in vitro ADME; settings: two-hour time-course, Figure S2
MDR1-MDCK = MDR1-MDCK permeability assay; assay type: in vitro ADME, canine; settings: A-to-B; 5 µM; 120 minutes
P-gp (MDR1) = assay: MDR1-MDCK permeability assay; assay type: in vitro ADME, canine; settings: dog; for Papp B→A at 120 min, 5 µM / Papp A→B at 120 min, 5 µM: MDCK-MDR1, pH 7.4, Papp; for recovery at 120 min, 5 µM: MDCK-MDR1, pH 7.4, Recovery (%)
GluA3 = GluA3 (Rattus norvegicus, UniProt P19492); assay: off-target two-electrode voltage clamp, GluA3; assay type: cell-based; settings: read-out: ITEST / ICONTROL (mean ± SEM, %)
GluA3, sequence (P19492 23-888): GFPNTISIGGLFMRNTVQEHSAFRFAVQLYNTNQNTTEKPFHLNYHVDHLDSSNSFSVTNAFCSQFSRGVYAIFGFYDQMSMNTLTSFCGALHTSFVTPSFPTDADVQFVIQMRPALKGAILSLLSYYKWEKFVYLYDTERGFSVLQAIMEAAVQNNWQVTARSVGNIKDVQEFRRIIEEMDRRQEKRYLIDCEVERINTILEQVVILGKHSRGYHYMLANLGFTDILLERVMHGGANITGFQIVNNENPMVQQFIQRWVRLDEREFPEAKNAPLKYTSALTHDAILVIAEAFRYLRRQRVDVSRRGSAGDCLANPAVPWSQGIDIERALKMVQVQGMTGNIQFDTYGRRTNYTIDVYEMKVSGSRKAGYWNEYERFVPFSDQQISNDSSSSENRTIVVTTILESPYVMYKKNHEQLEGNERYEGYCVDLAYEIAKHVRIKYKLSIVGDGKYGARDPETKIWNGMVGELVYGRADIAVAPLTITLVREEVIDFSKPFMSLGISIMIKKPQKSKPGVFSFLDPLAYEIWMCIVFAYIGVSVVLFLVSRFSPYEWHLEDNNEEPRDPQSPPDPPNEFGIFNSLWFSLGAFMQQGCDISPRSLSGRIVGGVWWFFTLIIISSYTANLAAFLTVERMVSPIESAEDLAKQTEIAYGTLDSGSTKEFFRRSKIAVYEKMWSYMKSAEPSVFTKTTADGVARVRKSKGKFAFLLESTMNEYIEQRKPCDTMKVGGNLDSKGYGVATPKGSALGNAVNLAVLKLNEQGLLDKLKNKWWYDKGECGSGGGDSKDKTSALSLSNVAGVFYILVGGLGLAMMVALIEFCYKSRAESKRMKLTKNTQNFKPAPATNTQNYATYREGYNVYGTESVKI

GluK1 = GluK1 (Rattus norvegicus, UniProt P22756); assay: off-target two-electrode voltage clamp, GluK1; assay type: cell-based; settings: read-out: ITEST / ICONTROL (mean ± SEM, %)
GluK1, sequence (P22756 31-949): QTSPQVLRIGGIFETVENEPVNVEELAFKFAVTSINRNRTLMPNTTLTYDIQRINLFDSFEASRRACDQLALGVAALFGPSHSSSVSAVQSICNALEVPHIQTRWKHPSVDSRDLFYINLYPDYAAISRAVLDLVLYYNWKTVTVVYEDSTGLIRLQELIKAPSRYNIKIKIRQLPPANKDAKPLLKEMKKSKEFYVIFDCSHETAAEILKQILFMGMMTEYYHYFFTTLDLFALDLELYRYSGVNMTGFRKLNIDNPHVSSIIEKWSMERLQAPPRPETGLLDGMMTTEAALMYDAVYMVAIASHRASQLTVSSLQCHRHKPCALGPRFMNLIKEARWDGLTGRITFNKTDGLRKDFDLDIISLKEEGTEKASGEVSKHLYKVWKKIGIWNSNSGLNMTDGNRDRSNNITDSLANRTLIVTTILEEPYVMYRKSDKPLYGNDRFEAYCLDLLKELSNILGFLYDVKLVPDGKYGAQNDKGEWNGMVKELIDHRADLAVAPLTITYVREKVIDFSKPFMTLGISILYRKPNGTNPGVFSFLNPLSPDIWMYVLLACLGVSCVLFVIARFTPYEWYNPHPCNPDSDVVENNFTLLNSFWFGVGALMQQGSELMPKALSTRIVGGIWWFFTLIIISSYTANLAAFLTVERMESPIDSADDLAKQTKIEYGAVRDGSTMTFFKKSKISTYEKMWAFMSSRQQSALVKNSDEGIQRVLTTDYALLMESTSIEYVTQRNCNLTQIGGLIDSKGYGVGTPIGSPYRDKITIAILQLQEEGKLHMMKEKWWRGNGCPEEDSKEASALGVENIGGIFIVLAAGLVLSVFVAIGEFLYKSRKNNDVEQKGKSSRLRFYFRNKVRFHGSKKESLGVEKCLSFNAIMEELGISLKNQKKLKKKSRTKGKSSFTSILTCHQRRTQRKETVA

GluN1/GluN2D [4] = biological target: GluN1/GluN2D (Rattus norvegicus, UniProt P35439+Q62645); assay type: cell-based
GluN1/GluN2D (Rattus norvegicus, UniProt P35439+Q62645), sequence (Q62645 28-1323, other chains not shown): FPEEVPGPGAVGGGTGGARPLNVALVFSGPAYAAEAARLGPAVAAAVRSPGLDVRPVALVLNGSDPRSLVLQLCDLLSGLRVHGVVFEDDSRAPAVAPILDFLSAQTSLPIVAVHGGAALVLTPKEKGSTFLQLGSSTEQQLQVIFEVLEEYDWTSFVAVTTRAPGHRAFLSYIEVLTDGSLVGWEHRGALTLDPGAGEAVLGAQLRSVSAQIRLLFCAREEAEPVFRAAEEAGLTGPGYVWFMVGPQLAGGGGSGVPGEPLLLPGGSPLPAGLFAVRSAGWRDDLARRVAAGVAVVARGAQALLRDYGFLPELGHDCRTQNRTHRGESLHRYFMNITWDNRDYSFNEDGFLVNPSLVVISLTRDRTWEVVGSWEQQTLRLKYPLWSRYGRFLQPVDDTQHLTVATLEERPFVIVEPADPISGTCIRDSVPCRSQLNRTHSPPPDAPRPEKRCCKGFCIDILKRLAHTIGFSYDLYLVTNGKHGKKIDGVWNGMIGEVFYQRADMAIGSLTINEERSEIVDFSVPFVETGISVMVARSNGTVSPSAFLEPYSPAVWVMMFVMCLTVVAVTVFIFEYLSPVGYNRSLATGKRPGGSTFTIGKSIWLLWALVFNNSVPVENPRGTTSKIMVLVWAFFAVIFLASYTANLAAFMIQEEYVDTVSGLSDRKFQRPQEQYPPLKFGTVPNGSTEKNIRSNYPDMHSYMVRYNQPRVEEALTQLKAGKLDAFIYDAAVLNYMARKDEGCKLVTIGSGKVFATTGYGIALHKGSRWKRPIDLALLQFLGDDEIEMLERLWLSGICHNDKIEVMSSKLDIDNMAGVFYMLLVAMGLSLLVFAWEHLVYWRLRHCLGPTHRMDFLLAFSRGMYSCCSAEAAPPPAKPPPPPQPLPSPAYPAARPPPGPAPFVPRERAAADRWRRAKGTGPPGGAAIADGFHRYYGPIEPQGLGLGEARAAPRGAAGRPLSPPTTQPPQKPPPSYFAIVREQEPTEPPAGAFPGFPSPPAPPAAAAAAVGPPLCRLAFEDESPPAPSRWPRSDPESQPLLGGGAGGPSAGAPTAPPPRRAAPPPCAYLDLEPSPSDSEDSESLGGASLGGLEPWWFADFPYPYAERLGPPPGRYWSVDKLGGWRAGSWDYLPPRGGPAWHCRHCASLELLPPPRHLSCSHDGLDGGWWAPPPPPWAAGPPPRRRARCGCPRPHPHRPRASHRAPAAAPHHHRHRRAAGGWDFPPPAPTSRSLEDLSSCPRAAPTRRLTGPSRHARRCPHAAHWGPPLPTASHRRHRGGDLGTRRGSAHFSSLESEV

GluN1/GluN2B = GluN1/GluN2B (Rattus norvegicus, UniProt P35439+Q00960); assay type: cell-based
GluN1/GluN2C = GluN1/GluN2C (Rattus norvegicus, UniProt P35439+Q00961); assay type: cell-based
GluN1/GluN2A = GluN1/GluN2A (Rattus norvegicus, UniProt P35439+Q00959); assay type: cell-based
GluN1/GluN2A, sequence (Q00959 23-1464, other chains not shown): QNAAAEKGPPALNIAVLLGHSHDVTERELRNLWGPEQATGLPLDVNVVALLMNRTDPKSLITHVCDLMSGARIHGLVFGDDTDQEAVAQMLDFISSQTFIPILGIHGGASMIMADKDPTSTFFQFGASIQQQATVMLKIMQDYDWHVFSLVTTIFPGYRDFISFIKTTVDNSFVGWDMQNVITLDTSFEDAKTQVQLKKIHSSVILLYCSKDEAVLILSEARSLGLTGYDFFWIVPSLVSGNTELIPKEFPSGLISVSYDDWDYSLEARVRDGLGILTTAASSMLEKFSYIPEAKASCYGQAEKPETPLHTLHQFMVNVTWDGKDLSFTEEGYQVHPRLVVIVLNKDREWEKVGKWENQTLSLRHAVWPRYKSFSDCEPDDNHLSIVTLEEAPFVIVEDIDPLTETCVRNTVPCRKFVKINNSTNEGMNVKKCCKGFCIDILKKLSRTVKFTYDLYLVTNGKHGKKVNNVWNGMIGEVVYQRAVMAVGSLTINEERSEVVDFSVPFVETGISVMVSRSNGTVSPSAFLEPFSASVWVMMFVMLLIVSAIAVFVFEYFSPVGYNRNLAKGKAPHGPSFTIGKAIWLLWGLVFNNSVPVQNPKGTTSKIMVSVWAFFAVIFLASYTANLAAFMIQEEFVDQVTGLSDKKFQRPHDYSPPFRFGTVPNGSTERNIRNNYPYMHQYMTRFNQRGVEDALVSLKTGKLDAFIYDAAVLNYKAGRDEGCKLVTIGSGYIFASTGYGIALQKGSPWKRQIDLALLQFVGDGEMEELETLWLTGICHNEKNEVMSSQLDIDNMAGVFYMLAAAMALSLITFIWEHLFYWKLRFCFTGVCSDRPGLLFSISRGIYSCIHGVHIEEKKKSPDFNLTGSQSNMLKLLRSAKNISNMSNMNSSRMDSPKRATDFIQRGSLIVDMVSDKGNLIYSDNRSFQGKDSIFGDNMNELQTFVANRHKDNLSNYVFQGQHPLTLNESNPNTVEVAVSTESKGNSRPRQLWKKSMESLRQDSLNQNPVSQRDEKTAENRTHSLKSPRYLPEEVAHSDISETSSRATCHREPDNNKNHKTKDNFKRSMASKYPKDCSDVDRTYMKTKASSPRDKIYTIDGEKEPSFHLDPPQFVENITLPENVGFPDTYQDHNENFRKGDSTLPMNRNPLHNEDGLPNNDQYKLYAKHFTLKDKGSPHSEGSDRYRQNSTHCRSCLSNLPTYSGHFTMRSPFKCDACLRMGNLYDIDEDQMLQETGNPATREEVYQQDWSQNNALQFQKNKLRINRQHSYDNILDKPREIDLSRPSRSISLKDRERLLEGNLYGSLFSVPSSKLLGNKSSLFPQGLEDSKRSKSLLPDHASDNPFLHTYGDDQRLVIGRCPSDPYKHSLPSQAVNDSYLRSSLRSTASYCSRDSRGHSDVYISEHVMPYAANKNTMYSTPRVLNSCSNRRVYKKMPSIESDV

NMDA receptor subtypes = assay: two-electrode voltage clamp, activity statements without named subtype; assay type: cell-based; settings: receptor subtype not named
GluN1/GluN2D [5] = biological target: GluN1/GluN2D (Rattus norvegicus, UniProt Q62645); assay type: cell-based
GluN1/GluN2D (Rattus norvegicus, UniProt Q62645), sequence (Q62645 28-1323, other chains not shown): as the sequence (Q62645 28-1323, other chains not shown) above

[6] = human, liver microsomes, pH 7.4

Compound | microsomal CLint at 1 µM [1, 6] [µL/min/mg] | plasma stability (plasma stability, rat) | effect in primary binding assay [3] | plasma stability (plasma stability, human) | plasma stability (plasma stability, mouse) | Papp B→A at 120 min, 5 µM (P-gp (MDR1); determination 1, B-to-A) [×10⁻⁶ cm/s] | Papp B→A at 120 min, 5 µM (P-gp (MDR1); determination 2, B-to-A) [×10⁻⁶ cm/s] | remaining at 0 h, 1 µM [1, 6] [%] | Papp A→B at 120 min, 5 µM (P-gp (MDR1); determination 1, A-to-B) [×10⁻⁶ cm/s] | Papp A→B at 120 min, 5 µM (P-gp (MDR1); determination 2, A-to-B) [×10⁻⁶ cm/s] | other results
O=C(O)CCC(=O)N1N=C(c2c(-c3ccc(Cl)cc3)c3ccccc3[nH]c2=O)CC1c1ccc(Cl)cc1 (stereo not drawn) [Compound 26, 4-{5-(4-Chlorophenyl)-3-[4-(4-chlorophenyl)-2-oxo-1,2-dihydroquinolin-3-yl]-4,5-dihydro-1H-pyrazol-1-yl}-4-oxobutanoic acid] | < 20 | minimal degradation | minimal effect | minimal degradation | minimal degradation | 33.4 | 17.9 | – | – | – | degradation in human liver microsomes (in words) ([1]; over the 60 minute assay): minimal degradation; effect of mutations on degree of inhibition [2]: significantly reduced the degree of inhibition; Papp, Avg (MDR1-MDCK): 0.47 10^−6cm/s
O=C(O)/C=C/C(=O)N1N=C(c2c(-c3ccc(Br)cc3)c3ccccc3[nH]c2=O)CC1c1ccc(Cl)cc1 (stereo not drawn) [Compound 58, (E)-4-{3-[4-(4-Bromophenyl)-2-oxo-1,2-dihydroquinolin-3-yl]-5-(4-chlorophenyl)-4,5-dihydro-1H-pyrazol-1-yl}-4-oxobut-2-enoic acid] | – | minimal degradation | minimal effect | minimal degradation | minimal degradation | – | – | – | – | – | remaining activity at 3 µM (GluA3): 100 ± 1.1%; remaining activity at 3 µM (GluK1): 100 ± 4.4%
O=C(CCCO)N1N=C(c2c(-c3ccc(Cl)cc3)c3ccccc3[nH]c2=O)CC1c1ccc(Cl)cc1 (stereo not drawn) [Compound 64, 4-(4-Chlorophenyl)-3-[5-(4-chlorophenyl)-1-(4-hydroxybutanoyl)-4,5-dihydro-1H-pyrazol-3-yl]quinolin-2(1H)-one] | 110 | minimal degradation | – | minimal degradation | minimal degradation | 66.2 | 62.7 | 100 | 2.45 | 2.48 | half-life at 1 µM [1, 6]: 13 min; remaining at 0.5 h, 1 µM [1, 6]: 24%; remaining at 1 h, 1 µM [1, 6]: 6.5%; IC50 (GluN1/GluN2D [4]): 0.69 µM; IC50 (GluN1/GluN2B): 33 µM; IC50 (GluN1/GluN2C): 1.7 µM; efflux ratio at 120 min, 5 µM (P-gp (MDR1); MDCK-MDR1, pH 7.4): 26; Papp B→A at 120 min, 5 µM (P-gp (MDR1); Avg, B-to-A): 64.5 ×10⁻⁶ cm/s; recovery at 120 min, 5 µM (P-gp (MDR1); A-to-B): 43%; recovery at 120 min, 5 µM (P-gp (MDR1); B-to-A): 73%; IC50 (GluN1/GluN2A): 62 µM
O=C(CCCF)N1N=C(c2c(-c3ccc(Cl)cc3)c3ccccc3[nH]c2=O)CC1c1ccc(Cl)cc1 (stereo not drawn) [Compound 68, 4-(4-Chlorophenyl)-3-[5-(4-chlorophenyl)-1-(4-fluorobutanoyl)-4,5-dihydro-1H-pyrazol-3-yl]quinolin-2(1H)-one] | 40 | – | – | – | – | 9.32 | 9.72 | 100 | 4.51 | 3.24 | activity (in words) (NMDA receptor subtypes): inactive
O=C(O)CCC(=O)N1N=C(c2c(-c3ccc(Cl)cc3)c3ccccc3[nH]c2=O)C[C@H]1c1ccc(Cl)cc1 [Compound 69] | – | – | – | – | – | – | – | – | – | – | selectivity over other NMDA receptor subunits (GluN1/GluN2D [5]; GluN2D/GluN2C vs other subunits): over 70 fold; fold more potent at GluN2D-containing receptors than the R-enantiomer, 70 (GluN1/GluN2D [5]; S-enantiomer vs R-enantiomer): 11 fold
